Measured values from PubChem BioAssay AID2060912 (Molecular Pharmacology Branch, DTP, NCI, 2025).

Tested on: HUVEC/MSC spheroids viability
Assay: Human HUVEC/MSC cell line growth inhibition [KRAS2];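 as to viability, T/C: percent of DMSO vehicle control luminescence so 100% = untreated viability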
Settings: for IC50: curve of first compound; for viability, T/C: stronger effect = lower value
From the text: Multicellular complex tumor spheroid response to RAS pathway inhibitors in combination with a targeted agents in patient-derived cell lines with oncogenic KRAS variants from multiple cancer types
A high-throughput screen of multi-cell type tumor spheroids was designed to identify active combinations of targeted small molecules and KRAS pathway inhibitors. Complex spheroids include a stromal component modeled by human endothelial cells (HUVEC) and fibroblasts modeled by human mesenchymal stem cells (MSCs). The concentration ranges selected for each drug and investigational agent were based upon clinically achievable concentrations if the clinical Cmax of the agent was known. * [This particular assayID is a followup dataset requested by reviewers of the manuscript. It is a test of the HUVEC and MSC without the tumor cells, and was conducted using different drug plates and a different plate layout.]
Compounds. The drugs and investigational agents: BI-3406 (NSC825286), BAY-293 (NSC824723), batoprotafib (TNO155; NSC825523), sotorasib (AMG 510; NSC818433), MRTX1257 (NSC819558), elimusertib (BAY 1895344; NSC800525), molibresib (GSK525762; NSC774829), temuterkib (LY3214996; NSC803410), venetoclax (NSC766270), alisertib (NSC759677), olaparib (NSC753686), talazoparib (NSC767125), erdafitinib (NSC781556), ipatasertib (NSC767898), cabozantinib (NSC761068), nintedanib (NSC756659), abemaciclib (NSC768073), docetaxel (NSC628503), trametinib (NSC758246), and sapanisertib (NSC764658) were obtained from the National Cancer Institute (NCI) Developmental Therapeutics Program Chemical Repository. The FDA-approved anticancer drug set is available from the Developmental Therapeutics Program. […] The stock solutions were prepared in dimethyl sulfoxide (DMSO, Sigma-Aldrich, St. Louis, MO, cat. D2650) at 800-fold the tested concentration and stored at -70 degrees C prior to their use. All drugs and investigational agents were tested over a range starting from a high concentration at or near the clinical Cmax and decreasing in half-log increments. If the clinical Cmax for an agent had not been determined, the highest concentration tested was 10 microM.
Cell Culture. All cells were maintained in an incubator at 37 degrees C and 5% CO2 with 95% humidity. The PDC lines were cultured according to standard operating procedures established by the NCI PDMR (https://pdmr.cancer.gov/sops/default.htm). Briefly, all PDCs were thawed and cultured in Matrigel-coated flasks prepared with a working solution of 1X Ham's F-12 nutrient mix, without supplementation (Invitrogen, Waltham, MA, cat. 11765054), 100 U/mL penicillin-streptomycin (Invitrogen, cat. 15140122), and 2.5% Matrigel (Corning Inc., Corning, NY, cat. 354248) for the first three passages. All PDCs were cultured in complete DMEM/F-12 media containing advanced DMEM/F-12 (Invitrogen, cat. 12634028), 4.9% defined fetal bovine serum, heat inactivated (HyClone Laboratories Inc., Logan, UT, cat. SH30070.03HI), 389 ng/mL hydrocortisone (Sigma-Aldrich, cat. H4001), 9.7 ng/mL human EGF recombinant protein (Invitrogen, cat. PHG0313), 23.4 microg/mL adenine (Sigma-Aldrich, cat. A2786), 97.3 U/mL penicillin-streptomycin (Invitrogen, cat. 15140122), 1.9 mM L-glutamine (Invitrogen, cat. 25030081), and 9.7 microM Y-27632 dihydrochloride (Tocris Bioscience, Bristol, United Kingdom, cat. 1254). The PDCs were cultured in complete DMEM/F12 media without 9.7 microM Y-27632 dihydrochloride for at least two passages prior to the screen. The established cell line HOP-62 was cultured in RPMI 1640 medium, HEPES (Invitrogen, cat. 22400105) with 10% defined fetal bovine serum (HyClone Laboratories Inc., cat. SH30070.03) and 2 mM L-glutamine (Invitrogen, cat. 25030081). The pooled donor HUVEC were cultured in endothelial cell growth medium 2 (PromoCell, Heidelberg, Germany, cat. C-22011) and the hMSC were cultured in mesenchymal stem cell growth medium 2 (PromoCell, cat. C-28009). […]

[1] = second compound 0.0316 µM, first compound 0.0316 µM
[2] = second compound 0.0316 µM, first compound 0.1 µM
[3] = second compound 0.0316 µM, first compound 0.316 µM
[4] = second compound 0.0316 µM, first compound 1 µM
[5] = second compound 0.1 µM, first compound 0.0316 µM
[6] = second compound 0.1 µM, first compound 0.1 µM
[7] = second compound 0.1 µM, first compound 0.316 µM
[8] = second compound 0.1 µM, first compound 1 µM
[9] = second compound 0.316 µM, first compound 0.0316 µM
[10] = second compound 0.316 µM, first compound 0.1 µM
[11] = second compound 0.316 µM, first compound 0.316 µM
[12] = second compound 0.316 µM, first compound 1 µM
[13] = second compound 1 µM, first compound 0.0316 µM
[14] = second compound 1 µM, first compound 0.1 µM
[15] = second compound 1 µM, first compound 0.316 µM
[16] = second compound 1 µM, first compound 1 µM
[17] = second compound 3.16 µM, first compound 0.0316 µM
[18] = second compound 3.16 µM, first compound 0.1 µM
[19] = second compound 3.16 µM, first compound 0.316 µM
[20] = second compound 3.16 µM, first compound 1 µM
[21] = second compound 10 µM, first compound 0.0316 µM
[22] = second compound 10 µM, first compound 0.1 µM
[23] = second compound 10 µM, first compound 0.316 µM
[24] = second compound 10 µM, first compound 1 µM

SMILES: CCN1CCN(Cc2ccc(Nc3ncc(F)c(-c4cc(F)c5nc(C)n(C(C)C)c5c4)n3)nc2)CC1 + C=CC(=O)N1CCN(c2nc(=O)n(-c3c(C)ccnc3C(C)C)c3nc(-c4c(O)cccc4F)c(F)cc23)C(C)C1
- IC50 (second compound 0.0316 µM): > 1 µM
- IC50 (second compound 0.1 µM): > 1 µM
- IC50 (second compound 0.316 µM): > 1 µM
- IC50 (second compound 1 µM): > 1 µM
- IC50 (second compound 3.16 µM): > 1 µM
- IC50 (second compound 10 µM): > 1 µM
- viability, T/C (second compound 0.0316 µM, first compound 0.00316 µM): 76%
- viability, T/C (second compound 0.0316 µM, first compound 0.01 µM): 95.8%
- viability, T/C [1]: 93.7%
- viability, T/C [2]: 86.6%
- viability, T/C [3]: 129%
- viability, T/C [4]: 107%
- viability, T/C (second compound 0.1 µM, first compound 0.00316 µM): 96.8%
- viability, T/C (second compound 0.1 µM, first compound 0.01 µM): 102%
- viability, T/C [5]: 85.1%
- viability, T/C [6]: 82.9%
- viability, T/C [7]: 129%
- viability, T/C [8]: 116%
- viability, T/C (second compound 0.316 µM, first compound 0.00316 µM): 113%
- viability, T/C (second compound 0.316 µM, first compound 0.01 µM): 106%
- viability, T/C [9]: 98%
- viability, T/C [10]: 87.2%
- viability, T/C [11]: 112%
- viability, T/C [12]: 123%
- viability, T/C (second compound 1 µM, first compound 0.00316 µM): 118%
- viability, T/C (second compound 1 µM, first compound 0.01 µM): 109%
- viability, T/C [13]: 109%
- viability, T/C [14]: 119%
- viability, T/C [15]: 119%
- viability, T/C [16]: 133%
- viability, T/C (second compound 3.16 µM, first compound 0.00316 µM): 127%
- viability, T/C (second compound 3.16 µM, first compound 0.01 µM): 111%
- viability, T/C [17]: 132%
- viability, T/C [18]: 121%
- viability, T/C [19]: 138%
- viability, T/C [20]: 162%
- viability, T/C (second compound 10 µM, first compound 0.00316 µM): 149%
- viability, T/C (second compound 10 µM, first compound 0.01 µM): 154%
- viability, T/C [21]: 130%
- viability, T/C [22]: 134%
- viability, T/C [23]: 118%
- viability, T/C [24]: 162%

SMILES: CCNC(=O)CC1N=C(c2ccc(Cl)cc2)c2cc(OC)ccc2-n2c(C)nnc21 (centres undefined) + C=CC(=O)N1CCN(c2nc(=O)n(-c3c(C)ccnc3C(C)C)c3nc(-c4c(O)cccc4F)c(F)cc23)C(C)C1
- IC50 (second compound 0.0316 µM): > 10 µM
- IC50 (second compound 0.1 µM): > 10 µM
- IC50 (second compound 0.316 µM): > 10 µM
- IC50 (second compound 1 µM): > 10 µM
- IC50 (second compound 3.16 µM): > 10 µM
- IC50 (second compound 10 µM): > 10 µM
- viability, T/C [1]: 94.8%
- viability, T/C [2]: 96.7%
- viability, T/C [3]: 129%
- viability, T/C [4]: 140%
- viability, T/C (second compound 0.0316 µM, first compound 3.16 µM): 120%
- viability, T/C (second compound 0.0316 µM, first compound 10 µM): 121%
- viability, T/C [5]: 104%
- viability, T/C [6]: 86.3%
- viability, T/C [7]: 110%
- viability, T/C [8]: 138%
- viability, T/C (second compound 0.1 µM, first compound 3.16 µM): 162%
- viability, T/C (second compound 0.1 µM, first compound 10 µM): 151%
- viability, T/C [9]: 111%
- viability, T/C [10]: 109%
- viability, T/C [11]: 116%
- viability, T/C [12]: 143%
- viability, T/C (second compound 0.316 µM, first compound 3.16 µM): 131%
- viability, T/C (second compound 0.316 µM, first compound 10 µM): 187%
- viability, T/C [13]: 114%
- viability, T/C [14]: 105%
- viability, T/C [15]: 140%
- viability, T/C [16]: 163%
- viability, T/C (second compound 1 µM, first compound 3.16 µM): 179%
- viability, T/C (second compound 1 µM, first compound 10 µM): 174%
- viability, T/C [17]: 116%
- viability, T/C [18]: 146%
- viability, T/C [19]: 150%
- viability, T/C [20]: 208%
- viability, T/C (second compound 3.16 µM, first compound 3.16 µM): 206%
- viability, T/C (second compound 3.16 µM, first compound 10 µM): 207%
- viability, T/C [21]: 125%
- viability, T/C [22]: 127%
- viability, T/C [23]: 176%
- viability, T/C [24]: 189%
- viability, T/C (second compound 10 µM, first compound 3.16 µM): 179%
- viability, T/C (second compound 10 µM, first compound 10 µM): 197%
